# Measurements as given in the supplement of paper PMC10307832.
# Columns and labels:
# Assay in all cases: relative viability (nuclei count vs DMSO), 5 days (fraction); higher = more cells survive
# [1] = compound: Cn1cc(-c2cnn3c(N)c(Br)c([C@@H]4CCCNC4)nc23)cn1 + O=C(CCCCCCC(=O)Nc1ccccc1)NO [Vorinostat] (partner 1 µM)
# Method in brief: (§1)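 Values are medians from duplicate plates. Each reflects relative viability, defined as the nuclei count of treated wells over that of vehicle wells. Lung cancer cell lines in 1536-well plates were pin-tool dosed one day after seeding with one drug alone or with a fixed anchor-drug dose plus five library-drug doses (not always all listed) in √10 steps, then fixed, stained and imaged at 4× after 5 days.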
# [2] = compound: Cn1cc(-c2cnn3c(N)c(Br)c([C@@H]4CCCNC4)nc23)cn1 + Nc1nc2[nH]cc(CCc3ccc(C(=O)N[C@@H](CCC(=O)O)C(=O)O)cc3)c2c(=O)[nH]1 [Pemetrexed] (partner 0.2 µM)
# Method in brief: as §1
# [3] = compound: Cn1cc(-c2cnn3c(N)c(Br)c([C@@H]4CCCNC4)nc23)cn1 + Cc1nc(Nc2ncc(C(=O)Nc3c(C)cccc3Cl)s2)cc(N2CCN(CCO)CC2)n1 [Dasatinib] (partner 0.075 µM)
# Method in brief: as §1
# [4] = compound: Cn1cc(-c2cnn3c(N)c(Br)c([C@@H]4CCCNC4)nc23)cn1 + CC(=O)c1c(C)c2cnc(Nc3ccc(N4CCNCC4)cn3)nc2n(C2CCCC2)c1=O [Palbociclib] (partner 0.5 µM)
# Method in brief: as §1
Cell Line,relative viability ([1]; first compound 0.05 µM),relative viability ([1]; first compound 0.1581 µM),relative viability ([1]; first compound 0.5 µM),relative viability ([1]; first compound 1.581 µM),relative viability ([1]; first compound 5 µM),relative viability ([2]; first compound 0.05 µM),relative viability ([2]; first compound 0.1581 µM),relative viability ([2]; first compound 0.5 µM),relative viability ([2]; first compound 1.581 µM),relative viability ([2]; first compound 5 µM),relative viability ([3]; first compound 0.05 µM),relative viability ([3]; first compound 0.1581 µM),relative viability ([3]; first compound 0.5 µM),relative viability ([3]; first compound 1.581 µM),relative viability ([3]; first compound 5 µM),relative viability ([4]; first compound 0.05 µM),relative viability ([4]; first compound 0.1581 µM),relative viability ([4]; first compound 0.5 µM),relative viability ([4]; first compound 1.581 µM),relative viability ([4]; first compound 5 µM)
NCI-H1915,0.511,0.535,0.666,0.574,0.432,0.545,0.435,0.422,0.372,0.358,0.307,0.351,0.355,0.347,0.283,0.591,0.562,0.522,0.508,0.543
NCI-H1944,0.566,0.575,0.463,0.452,0.219,0.688,0.511,0.541,0.337,0.152,0.23,0.206,0.197,0.192,0.179,0.31,0.343,0.282,0.261,0.261
NCI-H1975,0.793,0.715,0.686,0.547,0.548,0.304,0.25,0.249,0.261,0.189,0.393,0.355,0.409,0.331,0.346,0.654,0.58,0.476,0.449,0.27
NCI-H1993,0.803,0.873,0.921,0.713,0.636,0.572,0.595,0.693,0.482,0.575,0.619,0.601,0.545,0.549,0.507,0.645,0.704,0.584,0.564,0.471
NCI-H2009,0.82,0.806,0.722,0.818,0.528,1.01,1.02,0.99,0.895,0.683,0.3,0.291,0.257,0.219,0.216,0.237,0.177,0.185,0.18,0.113
NCI-H2023,0.65,0.349,0.428,0.177,0.097,0.175,0.124,0.115,0.118,0.112,0.616,0.513,0.427,0.225,0.156,0.341,0.335,0.191,0.18,0.128
NCI-H2085,0.801,0.761,0.843,0.725,0.61,0.864,0.925,0.921,0.789,0.7,0.239,0.235,0.229,0.24,0.203,0.46,0.521,0.51,0.471,0.385
NCI-H2087,0.865,0.891,0.341,0.424,0.653,0.671,0.637,0.615,0.582,0.647,0.856,0.936,1.09,0.835,0.809,0.222,0.292,0.235,0.241,0.177
